Measurements: patent US20240391862A1, “(1,4,5-TRISUBSTITUTED-1H-PYRAZOL-3-YL)OXY-2-ALKOXY ALKYL ACIDS AND THEIR DERIVATIVES, THEIR SALTS AND THEIR USE AS HERBICIDAL AGENTS” (Bayer AKtiengesellschaft, priority 2021, published 2024)

Key:
ZEAMX = assay: Post-emergence herbicidal effect and crop plant compatibility, greenhouse pot test; format: in vivo, Zea mays; conditions: 20 g/ha, one-leaf stage, rated visually after about 3 weeks vs untreated controls
Method in brief: (§1)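 Visual % activity scored roughly 3 weeks post-spray against untreated plants, where 100% means death and 0% equals control. Plants were treated at the one-leaf stage, 2 to 3 weeks after sowing in sandy loam, at 20 to 320 g/ha.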

PHBPU = assay: Post-emergence herbicidal effect, greenhouse pot test; format: in vivo, Ipomoea purpurea
Method in brief: (§2)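 Sandy loam pots, greenhouse. One-leaf stage (2–3 wk after sowing) foliar spray; WP/EC in water + 0.5% additive, 600 l/ha; 20–320 g/ha. Visual score ~3 wk, 0–100% vs untreated.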

VERPE = assay: as above; format: in vivo, Veronica persica
Method in brief: as §2

LOLRI = assay: as above; format: in vivo, Lolium rigidum; conditions: 320 g/ha
Method in brief: as §2

ABUTH = assay: as above; format: in vivo, Abutilon theophrasti; conditions: visual rating about 3 weeks after treatment
Method in brief: as §2

KCHSC = assay: as above; format: in vivo
Method in brief: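 Visual rating of activity against untreated plants (100% = plants died, 0% = no effect), done about 3 weeks after treatment. Compounds applied at 20–320 g/ha as aqueous spray (600 l/ha, 0.5% additive) from WP or EC formulations onto one-leaf-stage plants grown in sandy loam under greenhouse conditions.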

POLCO = assay: as above; format: in vivo, Fallopia convolvulus
Method in brief: as §2

DIGSA = assay: as above; format: in vivo, Digitaria sanguinalis; conditions: 320 g/ha, visual rating about 3 weeks after treatment
Method in brief: as §2

ECHCG = assay: as above; format: in vivo, Echinochloa crus-galli
Method in brief: as §2

MATIN = assay: as above; format: in vivo, Tripleurospermum inodorum
Method in brief: as §2

SETVI = assay: as above; format: in vivo, Setaria viridis
Method in brief: as §2

ALOMY = assay: as above; format: in vivo, Alopecurus myosuroides; conditions: 320 g/ha, visual rating about 3 weeks after treatment
Method in brief: as §2

AVEFA = assay: as above; format: in vivo, Avena fatua; conditions: 320 g/ha, visual rating about 3 weeks after treatment
Method in brief: as §2

VIOTR = assay: as above; format: in vivo, Viola tricolor
Method in brief: as §2

AMARE = assay: as above; format: in vivo, Amaranthus retroflexus; conditions: 320 g/ha, visual rating about 3 weeks after treatment
Method in brief: as §2

TRZAS = assay: Post-emergence herbicidal effect and crop plant compatibility, greenhouse pot test; format: in vivo, Triticum aestivum; conditions: 20 g/ha, one-leaf stage, rated visually after about 3 weeks vs untreated controls
Method in brief: as §1

In the case of `CCOC(Oc1nn(-c2ccccc2F)c(-c2ccc(F)nc2)c1Cl)C(=O)OCCC(=O)OC` (stereo not shown) [Example I-53], the “Post-emergence effect at 20 g/ha against ZEAMX in %” value (ZEAMX) is reported as 0%, the “Post-emergence effect against PHBPU in %” value (PHBPU; 80 g/ha) is reported as 90% and the “Post-emergence effect against PHBPU in %” value (PHBPU; 320 g/ha) is reported as 90%. The “Post-emergence effect against VERPE in %” value (VERPE; 80 g/ha) was 80%, the “Post-emergence effect against VERPE in %” value (VERPE; 320 g/ha) was 90% and the “Post-emergence effect against LOLRI in %” value (LOLRI) was 90%. The “Post-emergence effect against ABUTH” value (ABUTH; 320 g/ha) was 80%, the “Post-emergence effect against KCHSC in %” value (KCHSC; 320 g/ha) was 80% and the “Post-emergence effect against POLCO in %” value (POLCO; 80 g/ha) was 80%. The “Post-emergence effect against POLCO in %” value (POLCO; 320 g/ha) was 80%, the “Post-emergence effect against DIGSA” value (DIGSA) was 90% and the “Post-emergence effect against ECHCG in %” value (ECHCG; 80 g/ha) was 90%. The “Post-emergence effect against ECHCG in %” value (ECHCG; 320 g/ha) was 90%, the “Post-emergence effect against MATIN in %” value (MATIN; 320 g/ha) was 80% and the “Post-emergence effect against SETVI in %” value (SETVI; 320 g/ha) was 90%. The “Post-emergence effect against ALOMY” value (ALOMY) was 100%, the “Post-emergence effect against AVEFA” value (AVEFA) was 90% and the “Post-emergence effect against VIOTR in %” value (VIOTR; 80 g/ha) was 80%. The “Post-emergence effect against VIOTR in %” value (VIOTR; 320 g/ha) was 80%, the “Post-emergence effect against AMARE” value (AMARE) was 80% and the “Post-emergence effect at 20 g/ha against TRZAS in %” value (TRZAS) was 0%.

Work on `COC(=O)C(OC)Oc1nn(-c2ccccc2F)c(-c2ccc(F)nc2)c1C1CC1` (stereo not shown) [Example I-71] yielded a plant injury at 20 g/ha (ZEAMX; Zea mays, 504 h, read-out: Post-emergence effect at 20 g/ha against ZEAMX in %) of 10%, a pest or weed control at 20 g/ha (PHBPU; Ipomoea purpurea, 504 h, 20 g/ha, read-out: Post-emergence effect against PHBPU in %) of 80% and a pest or weed control at 80 g/ha (PHBPU; Ipomoea purpurea, 504 h, 80 g/ha, read-out: Post-emergence effect against PHBPU in %) of 90%. The pest or weed control at 320 g/ha (PHBPU; Ipomoea purpurea, 504 h, 320 g/ha, read-out: Post-emergence effect against PHBPU in %) was 90%, the pest or weed control at 80 g/ha (VERPE; Veronica persica, 504 h, 80 g/ha, read-out: Post-emergence effect against VERPE in %) was 90% and the pest or weed control at 320 g/ha (VERPE; Veronica persica, 504 h, 320 g/ha, read-out: Post-emergence effect against VERPE in %) was 90%. The pest or weed control at 320 g/ha (LOLRI; Lolium rigidum, 504 h, read-out: Post-emergence effect against LOLRI in %) was 90%, the pest or weed control at 80 g/ha (ABUTH; Abutilon theophrasti, 504 h, 80 g/ha, read-out: Post-emergence effect against ABUTH) was 90% and the pest or weed control at 320 g/ha (ABUTH; Abutilon theophrasti, 504 h, 320 g/ha, read-out: Post-emergence effect against ABUTH) was 90%. The pest or weed control at 80 g/ha (KCHSC; 504 h, 80 g/ha, read-out: Post-emergence effect against KCHSC in %) was 80%, the pest or weed control at 320 g/ha (KCHSC; 504 h, 320 g/ha, read-out: Post-emergence effect against KCHSC in %) was 90% and the pest or weed control at 80 g/ha (POLCO; Fallopia convolvulus, 504 h, 80 g/ha, read-out: Post-emergence effect against POLCO in %) was 80%. The pest or weed control at 320 g/ha (POLCO; Fallopia convolvulus, 504 h, 320 g/ha, read-out: Post-emergence effect against POLCO in %) was 80%, the pest or weed control at 320 g/ha (DIGSA; Digitaria sanguinalis, 504 h, read-out: Post-emergence effect against DIGSA) was 90% and the pest or weed control at 20 g/ha (ECHCG; Echinochloa crus-galli, 504 h, 20 g/ha, visual rating about 3 weeks after treatment, read-out: Post-emergence effect against ECHCG) was 90%. It also gave a pest or weed control at 80 g/ha (ECHCG; Echinochloa crus-galli, 504 h, 80 g/ha, read-out: Post-emergence effect against ECHCG in %) of 90%, a pest or weed control at 320 g/ha (ECHCG; Echinochloa crus-galli, 504 h, 320 g/ha, read-out: Post-emergence effect against ECHCG in %) of 90% and a pest or weed control at 80 g/ha (MATIN; Tripleurospermum inodorum, 504 h, 80 g/ha, read-out: Post-emergence effect against MATIN in %) of 80%. For the same molecule, the pest or weed control at 320 g/ha (MATIN; Tripleurospermum inodorum, 504 h, 320 g/ha, read-out: Post-emergence effect against MATIN in %) was 80%, the pest or weed control at 80 g/ha (SETVI; Setaria viridis, 504 h, 80 g/ha, read-out: Post-emergence effect against SETVI in %) was 80% and the pest or weed control at 320 g/ha (SETVI; Setaria viridis, 504 h, 320 g/ha, read-out: Post-emergence effect against SETVI in %) was 90%. For the same molecule, the pest or weed control at 320 g/ha (ALOMY; Alopecurus myosuroides, 504 h, read-out: Post-emergence effect against ALOMY) was 90%, the pest or weed control at 320 g/ha (AVEFA; Avena fatua, 504 h, read-out: Post-emergence effect against AVEFA) was 90% and the pest or weed control at 20 g/ha (VIOTR; Viola tricolor, 504 h, 20 g/ha, read-out: Post-emergence effect against VIOTR in %) was 90%. The pest or weed control at 80 g/ha (VIOTR; Viola tricolor, 504 h, 80 g/ha, read-out: Post-emergence effect against VIOTR in %) was 90%, the pest or weed control at 320 g/ha (VIOTR; Viola tricolor, 504 h, 320 g/ha, read-out: Post-emergence effect against VIOTR in %) was 90% and the pest or weed control at 320 g/ha (AMARE; Amaranthus retroflexus, 504 h, read-out: Post-emergence effect against AMARE) was 80%. For the same molecule, the percent crop injury (phytotoxicity) to wheat, post-emergence at 20 g/ha (TRZAS; Triticum aestivum, 504 h, read-out: Post-emergence effect at 20 g/ha against TRZAS in %) was 20%.
